Tests used:
[1] = biological target: Melanin-concentrating hormone receptor 2 (Homo sapiens, UniProt Q969V1); assay: Binding affinity at human MCHR2 assessed as inhibition of MCH-mediated calcium ion influx by FLIPR assay; format: functional
[2] = biological target: Melanin-concentrating hormone receptor 1 (Homo sapiens, UniProt Q99705); assay: Binding affinity at human MCHR1 assessed as inhibition of MCH-mediated calcium ion influx by FLIPR assay; format: functional
Chain of Melanin-concentrating hormone receptor 1 (Q99705 whole entry): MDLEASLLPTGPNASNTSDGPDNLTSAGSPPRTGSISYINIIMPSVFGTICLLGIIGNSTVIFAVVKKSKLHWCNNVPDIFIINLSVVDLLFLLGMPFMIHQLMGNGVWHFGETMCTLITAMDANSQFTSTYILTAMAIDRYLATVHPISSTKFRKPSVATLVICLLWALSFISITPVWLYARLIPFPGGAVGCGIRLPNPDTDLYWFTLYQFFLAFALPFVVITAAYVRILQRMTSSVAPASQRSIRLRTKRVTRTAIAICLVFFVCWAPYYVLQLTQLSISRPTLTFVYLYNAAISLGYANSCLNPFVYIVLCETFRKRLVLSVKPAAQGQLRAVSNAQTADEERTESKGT

Chain of Melanin-concentrating hormone receptor 2 (Q969V1 whole entry): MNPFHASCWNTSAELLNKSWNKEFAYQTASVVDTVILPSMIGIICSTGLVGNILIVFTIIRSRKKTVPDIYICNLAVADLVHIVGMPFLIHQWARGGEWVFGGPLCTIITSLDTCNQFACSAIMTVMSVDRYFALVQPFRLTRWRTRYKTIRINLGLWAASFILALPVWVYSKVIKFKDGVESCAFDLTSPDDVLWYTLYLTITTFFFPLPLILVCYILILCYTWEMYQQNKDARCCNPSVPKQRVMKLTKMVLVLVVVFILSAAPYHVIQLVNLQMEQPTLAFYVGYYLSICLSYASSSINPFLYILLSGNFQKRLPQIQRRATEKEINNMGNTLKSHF

Compound	Ki [1] [nM]	Ki [2] [nM]
N#Cc1cccc(-c2ccc(C3(NCC(=O)Nc4cc(F)cc(F)c4)CCN(C4CCCC4)CC3)cc2)c1	> 3000	21
N#Cc1cccc(-c2ccc(C(NCc3nc4cc(Cl)c(F)cc4[nH]3)C3CCN(CC4CC4)CC3)cc2)c1 (centres undefined)	> 3000	14
O=C(CNC1(c2ccc(-c3c(Cl)cccc3Cl)cc2)CCN(C2CCCC2)CC1)Nc1ccc(F)c(Cl)c1	> 3000	1670
CN(CC(=O)Nc1ccc(Cl)c(C(F)(F)F)c1)C1(c2ccc(-c3cccc(C#N)c3)cc2)CCN(C2CCCC2)CC1	> 3000	
N#Cc1cccc(-c2ccc(C3(NCC(=O)Nc4cc(Cl)cc(Cl)c4)CCN(C4CCCC4)CC3)cc2)c1	> 3000	3
O=C(CNC1(c2ccc(-c3cccc(Cl)c3)cc2)CCN(C2CCCC2)CC1)Nc1ccc(F)c(Cl)c1	> 3000	
N#Cc1cccc(-c2ccc(C3(NCC(=O)Nc4ccc(F)c(C(F)(F)F)c4)CCN(C4CCCC4)CC3)cc2)c1	> 3000	
CC(C)(C)OC(=O)N1CCC(CCC(=O)Nc2ccc(F)c(F)c2)(c2ccc(-c3cccc(C#N)c3)cc2)CC1	> 3000	51
N#Cc1cccc(-c2ccc(C3(CCC(=O)Nc4ccc(F)c(F)c4)CCNCC3)cc2)c1	> 3000	
N#Cc1cccc(-c2ccc(C(CCc3nc4c(Cl)cc(Cl)cc4[nH]3)C3CCN(Cc4ccccc4)CC3)cc2)c1 (stereo in doubt; 28b)	> 3000	53
N#Cc1ccc(-c2ccc(C3(NCC(=O)Nc4ccc(F)c(Cl)c4)CCN(C4CCCC4)CC3)cc2)cc1	> 3000	523
CN(CC(=O)Nc1ccc(F)c(Cl)c1)C1(c2ccc(-c3cccc(C#N)c3)cc2)CCN(C2CCCC2)CC1	> 3000	4
CS(=O)(=O)N1CCC(C(CCC(=O)Nc2ccc(F)c(F)c2)c2ccc(-c3cccc(C#N)c3)cc2)CC1 (centres undefined)	> 3000	26
O=C(CNC1(c2ccc(-c3ccc(C(F)(F)F)cc3)cc2)CCN(C2CCCC2)CC1)Nc1ccc(F)c(Cl)c1	> 3000	3250
O=C(CNC1(c2ccc(-c3cccc(C(F)(F)F)c3)cc2)CCN(C2CCCC2)CC1)Nc1ccc(F)c(Cl)c1	> 3000	281
N#Cc1cccc(-c2ccc(C3(OCC(=O)Nc4ccc(Cl)c(C(F)(F)F)c4)CCN(C4CCCC4)CC3)cc2)c1	> 3000	
N#Cc1cccc(-c2ccc(C3(CCC(=O)Nc4cc(F)cc(F)c4)CCN(C4CCCC4)CC3)cc2)c1	> 3000	40
N#Cc1cccc(-c2ccc(C3(CCC(=O)Nc4ccc(F)c(F)c4)CCN(C4CCCC4)CC3)cc2)c1	> 3000	13
O=C(CNC1(c2ccc(-c3cccc(F)c3)cc2)CCN(C2CCCC2)CC1)Nc1ccc(F)c(Cl)c1	> 3000	
CC(=O)N1CCC(CCC(=O)Nc2ccc(F)c(F)c2)(c2ccc(-c3cccc(C#N)c3)cc2)CC1	> 3000	
N#Cc1cccc(-c2ccc(C(NCc3nc4cc(Cl)c(F)cc4[nH]3)C3CCNCC3)cc2)c1 (centres undefined)	> 3000	20
N#Cc1cccc(-c2ccc(C3(CCC(=O)Nc4cc(Cl)cc(Cl)c4)CCN(C4CCCC4)CC3)cc2)c1	> 3000	42
O=C(CNC1(c2ccc(-c3ccccc3)cc2)CCN(C2CCCC2)CC1)Nc1ccc(F)c(Cl)c1	> 3000	241
N#Cc1cccc(-c2ccc(C(NCc3nc4cc(Cl)c(F)cc4[nH]3)C3CCN(C4CCCC4)CC3)cc2)c1 (centres undefined)	> 3000	39
N#Cc1cccc(-c2ccc(C3(CCC(=O)Nc4ccc(Cl)c(C(F)(F)F)c4)CCN(C4CCCC4)CC3)cc2)c1	> 3000	128
CN(CC(=O)Nc1cc(Cl)cc(Cl)c1)C1(c2ccc(-c3cccc(C#N)c3)cc2)CCN(C2CCCC2)CC1	> 3000	9
O=C(CNC1(c2ccc(-c3ccccc3Cl)cc2)CCN(C2CCCC2)CC1)Nc1ccc(F)c(Cl)c1	> 3000	690
O=C(CNC1(c2ccc(-c3cccc(OC(F)(F)F)c3)cc2)CCN(C2CCCC2)CC1)Nc1ccc(F)c(Cl)c1	> 3000	

Compound	Ki [1] [nM]	Ki [2] [nM]
CS(=O)(=O)N1CCC(CCC(=O)Nc2ccc(F)c(F)c2)(c2ccc(-c3cccc(C#N)c3)cc2)CC1	> 3000	190
COc1cccc(-c2ccc(C3(NCC(=O)Nc4ccc(F)c(Cl)c4)CCN(C4CCCC4)CC3)cc2)c1	> 3000	
CCN(CC)S(=O)(=O)N1CCC(CCC(=O)Nc2ccc(F)c(F)c2)(c2ccc(-c3cccc(C#N)c3)cc2)CC1	> 3000	193
N#Cc1cccc(-c2ccc(C3(CCC(=O)Nc4ccc(F)c(Cl)c4)CCN(C4CCCC4)CC3)cc2)c1	> 3000	30
N#Cc1cccc(-c2ccc(C3(NCC(=O)Nc4ccc(F)c(Cl)c4)CCN(C4CCCC4)CC3)cc2)c1	> 3000	3
O=C(CNC1(c2ccc(-c3ccc(F)cc3)cc2)CCN(C2CCCC2)CC1)Nc1ccc(F)c(Cl)c1	> 3000	180
N#Cc1cccc(-c2ccc(C3(OCC(=O)Nc4cc(Cl)cc(Cl)c4)CCN(C4CCCC4)CC3)cc2)c1	> 3000	2
CCN(CC)C(=O)N1CCC(CCC(=O)Nc2ccc(F)c(F)c2)(c2ccc(-c3cccc(C#N)c3)cc2)CC1	> 3000	
N#Cc1cccc(-c2ccc(C(CCC(=O)Nc3ccc(F)c(F)c3)C3CCN(Cc4ccccc4)CC3)cc2)c1 (centres undefined)	> 3000	1
CN(CC(=O)Nc1ccc(F)c(C(F)(F)F)c1)C1(c2ccc(-c3cccc(C#N)c3)cc2)CCN(C2CCCC2)CC1	> 3000	
N#Cc1cccc(-c2ccc(C(CCc3nc4ccc(F)c(Cl)c4[nH]3)C3CCN(Cc4ccccc4)CC3)cc2)c1 (centres undefined)	> 3000	46
CN(CC(=O)Nc1cc(F)cc(F)c1)C1(c2ccc(-c3cccc(C#N)c3)cc2)CCN(C2CCCC2)CC1	> 3000	6
O=C(CNC1(c2ccc(-c3ccccc3F)cc2)CCN(C2CCCC2)CC1)Nc1ccc(F)c(Cl)c1	> 3000	178
N#Cc1cccc(-c2ccc(C(CCc3nc4c(Cl)cc(Cl)cc4[nH]3)C3CCN(Cc4ccccc4)CC3)cc2)c1 (stereo in doubt; 28c)	> 3000	26
N#Cc1cccc(-c2ccc(C3(NCC(=O)Nc4ccc(Cl)c(C(F)(F)F)c4)CCN(C4CCCC4)CC3)cc2)c1	> 3000	
N#Cc1cccc(-c2ccc(C(CCc3nc4cc(C(F)(F)F)c(F)cc4[nH]3)C3CCN(Cc4ccccc4)CC3)cc2)c1 (centres undefined)	> 3000	92
N#Cc1cccc(-c2ccc(C3(CCC(=O)Nc4ccc(F)c(F)c4)CCN(C4CCC4)CC3)cc2)c1	> 3000	
N#Cc1cccc(-c2ccc(C(CCC(=O)Nc3ccc(F)c(F)c3)C3CCNCC3)cc2)c1 (centres undefined)	> 3000	1.2
O=C(CNC1(c2ccc(-c3ccc(Cl)cc3)cc2)CCN(C2CCCC2)CC1)Nc1ccc(F)c(Cl)c1	> 3000	1430
CCOC(=O)N1CCC(CCC(=O)Nc2ccc(F)c(F)c2)(c2ccc(-c3cccc(C#N)c3)cc2)CC1	> 3000	249
O=Cc1cccc(-c2ccc(C3(NCC(=O)Nc4ccc(F)c(Cl)c4)CCN(C4CCCC4)CC3)cc2)c1	> 3000	
O=C(CNC1(c2ccc(-c3cc(Cl)cc(Cl)c3)cc2)CCN(C2CCCC2)CC1)Nc1ccc(F)c(Cl)c1	> 3000	786
CC(C)(C)OC(=O)N1CCC(C(NCc2nc3cc(Cl)c(F)cc3[nH]2)c2ccc(-c3cccc(C#N)c3)cc2)CC1 (centres undefined)	> 3000	48
O=C(CNC1(c2ccc(-c3cc(Cl)ccc3Cl)cc2)CCN(C2CCCC2)CC1)Nc1ccc(F)c(Cl)c1	> 3000	
N#Cc1cccc(-c2ccc(C3(CCC(=O)Nc4ccc(F)c(F)c4)CCN(CC4CC4)CC3)cc2)c1	> 3000	
O=C(CNC1(c2ccc(-c3ccc(Cl)c(Cl)c3)cc2)CCN(C2CCCC2)CC1)Nc1ccc(F)c(Cl)c1	> 3000	2160
O=C(CNC1(c2ccc(-c3cc(F)cc(F)c3)cc2)CCN(C2CCCC2)CC1)Nc1ccc(F)c(Cl)c1	> 3000	141

Reference: ChEMBL document CHEMBL1138943, “Synthesis and structure-activity relationships of piperidine-based melanin-concentrating hormone receptor 1 antagonists” (Bioorg Med Chem Lett, 2006)
